Experiments:
[1] = Solubility of initiator in cyclohexane with isoprene added as chain extension agent; type: physicochemical; settings: for solubility, Moles Active/Kg. / solubility, Moles Active/Liter: cyclohexane
Description: For example, the solubility of 3-(1,1-dimethylethoxy)-1-propyllithium was investigated in cyclohexane at 0° C., with various amounts of isoprene added as a chain extension agent. The solubility data is collected in the table below:
A similar impact on the solubility of 3-(hexamethyleneimino)-1-propyllithium in cyclohexane was obtained with the addition of limited amounts of isoprene.
A one-liter three-necked Morton flask was equipped with a mechanical stirrer, Claisen adapter with an ice condenser and gas inlet, and a 250 milliliter pressure-equalizing dropping funnel. This apparatus was dried in an oven overnight at 125° C., assembled hot, and allowed to cool to room temperature in a stream of argon. Lithium metal dispersion was washed free of mineral oil with hexane (2×100 ml) and pentane (1×100 ml). The resultant lithium dispersion was dried in a stream of argon, weighed (13.90 grams, 2.00 moles, 2.80 equivalents), and transferred to the reaction flask with 400 ml of cyclohexane. The mechanical stirrer was set at an agitation rate of 500 RPMs, and the reaction mixture was heated to 80° C. with a heating mantle. The heat source was removed. The dropping funnel was charged with 107.82 grams (0.72 moles, 1.00 equivalent) of the precursor. The precursor was added dropwise, at an approximate rate of 0.71 ml/min. The reaction temperature was maintained at 70° C. with a dry ice/hexane bath. The total halide feed time was 162 minutes. The reaction mixture was allowed to stir for one hour post-feed, and maintained at a temperature of 70° C. with a heating mantle. Then isoprene, 98.20 grams ([…], […] of isoprene) was added at a feed rate of approximately 2.55 ml/min. The temperature was maintained at 62.5° C. during and after the feed. The reaction stirred for two hours before it was cooled to room temperature and filtered through a medium porosity pressure filter. The lithium muds were washed with cyclohexane (1×50 ml). The filtration took 15 minutes. This afforded a dark yellow solution, 647.08 grams, 850 ml. The sample was stored in 0° C. refrigerator. This solution was transferred to a dry, 1000 ml pear shaped flask. A majority of the solvent was removed on the rotary evaporator, at full vacuum, with a bath temperature of 30° C. This afforded a mobile, yellow oil, yield=307.92 g, 475 ml.

[2] = non-chain extended initiator, cyclohexane (background statement); cited from earlier work
[3] = Storage of initiator solutions, observation of precipitate or crystals; type: physicochemical
Description: The sample bottle was placed in a refrigerator at −1° C. for twenty-four hours.
(§1) The sample bottle was placed in a refrigerator at −1° C. for twenty-four hours. […] This solution was transferred to a dry, one-liter pear shaped flask. A majority of the solvent was removed on the rotary evaporator, at full vacuum, with a bath temperature of 40° C. This afforded a dark amber oil, yield=154.85 grams.
as §1, with “one liter” for “one-liter”, “yield=230.07” for “yield=154.85”
The sample bottle was placed in a refrigerator at −2° C. for forty-eight hours.
This solution was transferred to a dry, 500 ml., pear shaped flask. A majority of the solvent was removed on the rotary evaporator, at full vacuum, with a bath temperature of 40° C. This afforded a dark amber oil, yield=104.90 grams. Heptane, 6.11 grams, was added as a freezing point depressant.
A one-liter three-necked Morton flask was equipped with a mechanical stirrer, Claisen adapter with an ice condenser and gas inlet, and a 250 milliliter pressure-equalizing dropping funnel. This apparatus was dried in an oven overnight at 125° C., assembled hot, and allowed to cool to room temperature in a stream of argon. Lithium metal dispersion was washed free of mineral oil with hexane (2×100 ml), and pentane (1×100 ml). The resultant lithium dispersion was dried in a stream of argon, weighed (12.22 grams, 1.76 moles, 2.80 equivalents), and transferred to the reaction flask with 550 ml of cyclohexane. The mechanical stirrer was set at an agitation rate of 500 RPMs, and the reaction mixture was heated to 80° C. with a hearing mantle. The heat source was removed. The dropping funnel was charged with 94.90 grams (0.63 moles, 1.00 equivalent) of the precursor. The precursor was added dropwise, at an approximate rate of 1.59 ml/min. The reaction temperature was maintained at 70° C. with a dry ice/hexane bath. The total halide feed time was 66 minutes. The reaction mixture was allowed to stir for one hour post-feed and maintained at a temperature of 67.5° C. with a heating mantle. Then isoprene, 22.89 grams ([…], 0.50 equivalents of isoprene) was added at a feed rate of approximately 1.58 ml/min. The temperature was maintained at 62.5° C. during and after the feed. The reaction stirred for two hours before it was cooled to room temperature and filtered through a medium porosity pressure filter. The lithium muds were washed with cyclohexane (2×70 ml). The filtration took 15 minutes. This afforded a clear, light yellow solution, 513.07 g, 650 ml. The sample was stored in 0° C. refrigerator. This solution was transferred to a dry, 1000 ml pear-shaped flask. Some solvent was removed on the rotary evaporator, at full vacuum, with a bath temperature of 30° C. This afforded a light yellow solution, yield=386.01 g, 550 ml.
A one-liter three-necked Morton flask was equipped with a mechanical stirrer, Claisen adapter with an ice condenser and gas inlet, and a 250 milliliter pressure-equalizing dropping funnel. This apparatus was dried in an oven overnight at 125° C., assembled hot, and allowed to cool to room temperature in a stream of argon. Lithium metal dispersion was washed free of mineral oil with hexane (2×100 ml) and pentane (1×100 ml). The resultant lithium dispersion was dried in a stream of argon, weighed (13.90 grams, 2.00 moles, 2.80 equivalents), and transferred to the reaction flask with 400 ml of cyclohexane. The mechanical stirrer was set at an agitation rate of 500 RPMs, and the reaction mixture was heated to 80° C. with a heating mantle. The heat source was removed. The dropping funnel was charged with 107.82 grams (0.72 moles, 1.00 equivalent) of the precursor. The precursor was added dropwise, at an approximate rate of 0.71 ml/min. […]

[4] = 0° C., 0.00 isoprene equivalents
[5] = 0° C., 0.50 isoprene equivalents
[6] = 0° C., 0.75 isoprene equivalents
[7] = 0° C., 1.00 isoprene equivalents
[8] = 0° C., 2.00 isoprene equivalents

SMILES: [Li][CH2]C(C)(C)CO[Si](C)(C)C [2,2-dimethyl-3-trimethylsilyloxy-1-propyllithium]
- effect of chain extension on solubility ([1]; addition of less than one equivalent of the chain extension agent): increased the solubility

SMILES: [Li][CH2]CCOC(C)(C)C [3-(1,1-dimethylethoxy)-1-propyllithium]
- solubility, Moles Active/Kg. [1, 4]: 0.36 Moles Active/Kg.
- solubility, Moles Active/Liter [1, 4]: 0.30 Moles Active/Liter
- solubility, Moles Active/Kg. [1, 5]: 1.35 Moles Active/Kg.
- solubility, Moles Active/Liter [1, 5]: 1.06 Moles Active/Liter
- solubility, Moles Active/Kg. [1, 6]: 1.72 Moles Active/Kg.
- solubility, Moles Active/Liter [1, 6]: 1.33 Moles Active/Liter
- solubility, Moles Active/Kg. [1, 7]: 1.84 Moles Active/Kg.
- solubility, Moles Active/Liter [1, 7]: 1.42 Moles Active/Liter
- solubility, Moles Active/Kg. [1, 8]: 1.90 Moles Active/Kg.
- solubility, Moles Active/Liter [1, 8]: 1.46 Moles Active/Liter

SMILES: [Li][CH2]CCOC(C)(C)CC [3-(1,1-dimethylpropyloxy)-1-propyllithium]
- maximum solubility in cyclohexane [2]: 0.30 Molar

SMILES: [Li][CH2]CCN1CCCCCC1 [3-(hexamethyleneimino)-1-propyllithium]
- precipitation on storage ([3]; cyclohexane solution, 6.707 wt. % (0.4556 moles/kg), overnight at −5° C.): heavy white precipitate
- solubility, Moles Active/Kg. ([1]; 0.00 isoprene equivalents): 0.20 Moles Active/Kg.
- solubility, Moles Active/Liter ([1]; 0.00 isoprene equivalents): 0.16 Moles Active/Liter
- solubility, Moles Active/Kg. ([1]; 0.13 isoprene equivalents): 0.64 Moles Active/Kg.
- solubility, Moles Active/Liter ([1]; 0.13 isoprene equivalents): 0.51 Moles Active/Liter
- solubility, Moles Active/Kg. ([1]; 0.51 isoprene equivalents): 2.08 Moles Active/Kg.
- solubility, Moles Active/Liter ([1]; 0.51 isoprene equivalents): 1.62 Moles Active/Liter
- solubility, Moles Active/Kg. ([1]; 0.90 isoprene equivalents): 2.43 Moles Active/Kg.
- solubility, Moles Active/Liter ([1]; 0.90 isoprene equivalents): 2.01 Moles Active/Liter
- solubility, Moles Active/Kg. ([1]; 2.00 isoprene equivalents): 2.75 Moles Active/Kg.
- solubility, Moles Active/Liter ([1]; 2.00 isoprene equivalents): 2.28 Moles Active/Liter
- maximum solubility in cyclohexane [2]: 0.30 Molar

SMILES: [Li][CH2]CCN1CCCC1 [3-(pyrrolidino)-1-propyllithium]
- precipitation on storage ([3]; cyclohexane solution before chain extension, 14.63 wt. % (1.228 moles/kg), overnight at 20° C.): heavy white precipitate had formed

SMILES: [Li][CH2]CCN1CCCCCC1 [Example 1, 3-(Hexamethyleneimino)-1-Propyllithium]
- precipitation on storage ([3]; cyclohexane solution as obtained, refrigerator at −1° C. for twenty-four hours): No solids had precipitated
- precipitation on storage ([3]; cyclohexane solution as obtained, storage overnight at 15° C.): no solids had precipitated

SMILES: [Li][CH2]CCN1CCCCCC1 [Example 2, 3-(Hexamethyleneimino)-1-Propyllithium]
- precipitation on storage ([3]; concentrated solution, 30.65 wt. % (2.083 moles/kg), −1° C. for one week): no precipitate was observed

SMILES: [Li][CH2]CCN1CCCCCC1 [Example 3, 3-(Hexamethyleneimino)-1-Propyllithium]
- precipitation on storage ([3]; concentrated solution, 35.74 wt. % (2.428 moles/kg), −1° C. for ten days): no precipitate was observed

SMILES: [Li][CH2]CCN1CCCC1 [Example 4, 3-(Pyrrolidino)-1-Propyllithium]
- precipitation on storage ([3]; cyclohexane solution diluted with heptane, 9.53 wt. %, −2° C. for forty-eight hours): No solids had precipitated

SMILES: [Li][CH2]CCN1CCCC1 [Example 5, 3-(Pyrrolidino)-1-Propyllithium]
- precipitation on storage ([3]; concentrated solution with heptane, 24.14 wt %, −2° C. for four days): no solids had precipitated
- precipitation on storage ([3]; cyclohexane solution, 14.02 wt. %, overnight at −2° C.): no solids had precipitated

SMILES: [Li][CH2]CCOC(C)(C)C [Example 7, 3-(1,1-Dimethylethoxy)-1-propyllithium]
- crystals on storage ([3]; cyclohexane solution, 0° C. refrigerator, after one day): Crystals were present

SMILES: [Li][CH2]CCOC(C)(C)C [Example 10, 3-(1,1-Dimethylethoxy)-1-propyllithium]
- crystals on storage ([3]; concentrated cyclohexane solution, 49.4 wt. % (1.91 mole/kg), storage in 0° C. refrigerator, maximum solubility): crystals were present
